What was measured:
versican [1] = experiment: Modulation of versican synthesis on human skin explants (immunostaining); conditions: 0.005 mg/ml in cosmetic formulation, topical on days 0, 2, 4 and 7, explants collected day 9
Protocol: The effect of Ac-SEQ ID NO: 3-NH2 peptide (synthesized in accordance with examples 1-3 and 5) on versican production was evaluated on human skin explants from a donor.
Briefly, skin explants were obtained from a volunteer donor undergoing a plastic surgery procedure. Skin excess was donated for the present study. Skin explants were treated with a cosmetic formulation containing 1% (m/v) from a stock at 0.05% (m/v) of Ac-SEQ ID NO: 3-NH2 (effective final concentration of Ac-SEQ ID NO: 3-NH2, 0.005 mg/ml). On days 0, 2, 4 and 7, the tested product was topically applied on the basis of 2 μl per cm^2 of skin explant and spread using a small spatula.
On day 9, 3 explants from each condition were collected and fixed in a buffered formalin solution. After fixation for 24 hours in buffered formalin, samples were dehydrated and impregnated and embedded in paraffin. 5-μm-thick sections were made using a Leica RM 2125 Minot-type microtome, and the sections were mounted on Superfrost® histological glass slides. The microscopical observations were performed using a Leica DMLB or Olympus BX43 microscope. Pictures were digitized with a numeric DP72 Olympus camera with CellD storing software.
The immunostaining was performed using an automated slide-processing system (Dako, AutostainerPlus). The staining was assessed by microscopical observation and image analysis.

fibrillin-1 [2] = experiment: Modulation of fibrillin-1 synthesis in HDFa cell culture (sandwich ELISA); assay type: cell-based, human; conditions: 48 hours
Protocol: Modulation of fibrilin-1 synthesis by Ac-SEQ ID NO: 3-NH2 peptide (synthesized in accordance with examples 1-3 and 5) was evaluated in vitro using HDFa.
HDFa were seeded in 96-well plates at a density of 1×10^4 cells/well and they were put in contact with three non-cytotoxic concentrations of Ac-SEQ ID NO: 3-N H2 peptide: 0.01 mg/ml, 0.05 mg/ml and 0.1 mg/ml for 48 hours. Untreated cells were included as basal control. At the end of the monitored experiment, cell culture media were extracted from all wells and stored at −80° C. Modulation on fibrillin-1 levels was analyzed by means of sandwhich ELISA following manufacturer's instructions.

Fibrillin-1 (FBN1) = experiment: Gene expression modulation in HDFa (RTqPCR), FBN1; assay type: cell-based, human; conditions: 0.05 mg/ml, 6 hours
Protocol: (§1) Changes in gene expression levels are represented as a positive or negative fold-change with regard to the basal control (untreated cells). Bars from top to bottom in the y axis refer to: Metalloproteinase-1 (MMP1), Metalloproteinase-3 (MMP3), Fibronectin 1 (FN1), Fibrillin-1 (FBN1) and Versican (VCAN) genes, and x axis refers to fold change vs basal control.
(§2) Modulation of gene expression by Ac-SEQ ID NO: 3-NH2 peptide (synthesized in accordance with examples 1-3 and 5) on HDFa was evaluated in vitro.
(§3) Briefly, HDFa cells were seeded in duplicate in 6-well plates at a density of 4×10^5 cells/well and they were maintained at standard culture conditions (37° C., 95% humidity, 5% CO2) for 24 hours. Then, cells were treated with Ac-SEQ ID NO: 3-NH2 peptide at the non-cytotoxic concentration of 0.05 and 0.1 mg/ml for additional 6 hours. Untreated cells were used as basal control. […] RNA was then quantified by nanodrop, adjusted in concentration and processed for retrotranscription to cDNA using a commercially available kit (High-Capacity cDNA Reverse Transcription kit—Thermofisher Scientific, USA). Resulting cDNA was used to perform a RTqPCR (Real Time Quantitative Polymerase Chain Reaction) using taqman technology and a panel of probes designed to target specific genes related to extracellular matrix components and structure.

[3] = system: Metalloproteinase-3 (MMP3); experiment: Gene expression modulation in HDFa (RTqPCR), MMP3; assay type: cell-based, human; conditions: 0.1 mg/ml, 6 hours
Protocol: as §1, §2, §3

versican [4] = experiment: Modulation of versican synthesis in HDFa cell culture (sandwich ELISA); assay type: cell-based, human; conditions: 24 hours
Protocol: The effect of Ac-SEQ ID NO: 3-NH2 peptide (synthesized in accordance with examples 1-3 and 5) on versican production was evaluated in vitro using human dermal fibroblasts (hereinafter, HDFa).
Briefly, HDFa cells were seeded in 96-well plates at 1×10^4 cells/well in fibroblasts growth media and maintained for 24 hours at standard culture conditions (37° C., 95% humidity, 5% CO2). After the aforementioned incubation, medium was removed and new medium containing the non-cytotoxic concentrations of Ac-SEQ ID NO: 3-NH2 peptide of: 0.01 mg/ml, 0.05 mg/ml and 0.1 mg/ml was added and incubated for 24 hours. 0.1 μM retinoic acid was included as positive control for versican stimulation and untreated cells were included as basal control. Cell culture media and cell lysate were collected from all wells at the end of the experiment and stored at −80° C. Ex-novo synthesis of versican was measured by means of sandwich ELISA following manufacturer's instructions.

[5] = system: Metalloproteinase-1 (MMP1); experiment: Gene expression modulation in HDFa (RTqPCR), MMP1; assay type: cell-based, human; conditions: 0.1 mg/ml, 6 hours
Protocol: as §1, §2, §3

hyaluronic acid = experiment: Modulation of hyaluronic acid synthesis in HDFa cell culture (competitive ELISA); assay type: cell-based, human; conditions: 48 hours
Protocol: Modulation of Hyaluronic acid production by Ac-SEQ ID NO: 3-NH2 peptide (synthesized in accordance with examples 1-3 and 5) on HDFa was evaluated in vitro.
Briefly, HDFa were seeded in 96-well plates at a density of 1×10^4 cells/well and, then, incubated with non-cytotoxic concentrations of Ac-SEQ ID NO: 3-NH2 peptide, this is 0.01 mg/ml, 0.05 mg/ml, 0.1 mg/ml and 0.5 mg/ml, for 48 hours. 0.1 μM retinoic acid was included as positive control and untreated cells were included as basal control. At the end of the experiment, cell culture media were extracted from all wells and stored at −80° C. Ex-novo synthesis of hyaluronic acid was measured by means of competitive ELISA following manufacturer's instructions.

Fibronectin 1 (FN1) = experiment: Gene expression modulation in HDFa (RTqPCR), FN1; assay type: cell-based, human; conditions: 0.1 mg/ml, 6 hours
Protocol: as §1, §2, §3

facial skin firmness = experiment: Clinical evaluation of facial skin firmness on female volunteers (Dynaskin); assay type: in vivo, human; conditions: 0.015 mg/ml in cosmetic formulation, two times per day, after 56 days, whole treated group
Protocol: The effect of Ac-SEQ ID NO: 3-NH2 peptide (synthesized in accordance with examples 1-3 and 5) on facial skin firmness was evaluated on 22 Caucasian female volunteers.
Briefly, volunteers applied a cosmetic formulation with 3% (m/v) from a stock at 0.05% (m/v) of Ac-SEQ ID NO: 3-NH2 (effective final concentration of Ac-SEQ ID NO: 3-NH2, 0.015 mg/ml) or without (placebo). The application regime was of two times per day during 56 days, on early morning and before bedtime. Cosmetic formulations were applied on either half of clean face in order to compare the effect of placebo and the active on the same volunteer.
On days 0, 7, 14 and 56, a Dynaskin device was used on each volunteer in order to measure the firmness quality of the skin according to three parameters: volume (mm^3), area (mm^2) and depth (mm). Dynaskin uses an air beam projection onto the cheek area causing a deformation of the skin. This deformation magnitude is measured by means of a specific software collecting data of the above three parameters for each volunteer and on each hemiface.

fibrillin-1 [6] = experiment: Modulation of fibrillin-1 synthesis on human skin explants (immunostaining); conditions: 0.005 mg/ml in cosmetic formulation, topical on days 0, 2, 4 and 7, explants collected day 9
Protocol: The effect of Ac-SEQ ID NO: 3-NH2 peptide (synthesized in accordance with examples 1-3 and 5) on fibrillin-1 production was evaluated on human skin explants from a donor.
Briefly, skin explants were treated with a cosmetic formulation containing 1% (m/v) from a stock at 0.05% (m/v) of Ac-SEQ ID NO: 3-N H2 (effective final concentration of Ac-SEQ ID NO: 3-N H2, 0.005 mg/ml). On days 0, 2, 4 and 7, the tested product was topically applied on the basis of 2 μl per cm^2 of skin explant and spread using a small spatula.
On day 9, 3 explants from each condition were collected and frozen at −80° C. The frozen samples were cut into 7-μm-thick sections using a Leica CM 3050 cryostat. Sections were then mounted on Superfrost® plus silanized glass slides. The microscopical observations were performed using a Leica DMLB or Olympus BX43 microscope. Pictures were digitized with a numeric DP72 Olympus camera with CellD storing software.
The nuclei were counterstained using propidium iodide. The immunostaining was performed using an automated slide-processing system (Dako, AutostainerPlus). The staining was assessed by microscopical observation and image analysis.

Versican (VCAN) = experiment: Gene expression modulation in HDFa (RTqPCR), VCAN; assay type: cell-based, human; conditions: 0.05 mg/ml, 6 hours
Protocol: as §1, §2, §3

HDFa = experiment: Cytotoxicity of tested concentrations on HDFa; assay type: cell-based, human; conditions: 0.01, 0.05, 0.1 and 0.5 mg/ml
tropoelastin = experiment: Modulation of tropoelastin synthesis in HDFa cell culture (sandwich ELISA); assay type: cell-based, human; conditions: 24 hours
Protocol: The potential effect of Ac-SEQ ID NO: 3-NH2 peptide (synthesized in accordance with examples 1-3 and 5) on tropoelastin synthesis was evaluated in vitro using HDFa.
HDFa were put in culture at a density of 1×10^4 cells/well in 96-well plates and incubated for 24 hours with non-cytotoxic increasing concentrations of Ac-SEQ ID NO: 3-NH2 peptide (0.01 mg/ml, 0.05 mg/ml, 0.1 mg/ml and 0.5 mg/ml). Untreated cells were included as basal control. At the end of the monitored experimental time cell culture media and cell lysates were extracted from all wells and stored at −80° C. Ex-novo synthesis of tropoelastin was measured by means of sandwich ELISA following manufacturer's instructions.

MMP3 gene expression, fold change vs basal control [3]: −1.20
MMP1 gene expression, fold change vs basal control [5]: −1.33
Substance: Ac-ALHKVK-NH2 [Ac-SEQ ID NO: 3-NH2, Ac-Ala-Leu-His-Lys-Val-Lys-NH2]
increase in skin surface occupied by versican protein compared to basal control (versican [1]): 29%
increase in fibrillin-1 synthesis compared to basal control (fibrillin-1 [2]; 0.01 mg/ml): 18%
increase in fibrillin-1 synthesis compared to basal control (fibrillin-1 [2]; 0.05 mg/ml): 30%
increase in fibrillin-1 synthesis compared to basal control (fibrillin-1 [2]; 0.10 mg/ml): 41%
Fibrillin 1 gene expression, fold change vs basal control (Fibrillin-1 (FBN1)): 1.55
increase in versican synthesis compared to basal control (versican [4]; 0.01 mg/ml): 24%
increase in versican synthesis compared to basal control (versican [4]; 0.05 mg/ml): 35%
increase in versican synthesis compared to basal control (versican [4]; 0.10 mg/ml): 62%
increase in hyaluronic acid production compared to basal control (hyaluronic acid; 0.01 mg/ml): 3%
increase in hyaluronic acid production compared to basal control (hyaluronic acid; 0.05 mg/ml): 8%
increase in hyaluronic acid production compared to basal control (hyaluronic acid; 0.1 mg/ml): 10%
increase in hyaluronic acid production compared to basal control (hyaluronic acid; 0.5 mg/ml): 18%
Fibronectin 1 gene expression, fold change vs basal control (Fibronectin 1 (FN1)): 1.41
decrease in area of cheek deformation versus initial time (facial skin firmness): 7%
decrease in depth of cheek deformation versus initial time (facial skin firmness): 14.5%
decrease in volume of cheek deformation versus initial time (facial skin firmness): 20%
increase in skin surface occupied by fibrillin-1 protein compared to basal control (fibrillin-1 [6]): 24%
Versican gene expression, fold change vs basal control (Versican (VCAN)): 1.22
cytotoxicity on HDFa (HDFa): non-cytotoxic
increase in tropoelastin synthesis compared to basal control (tropoelastin; 0.01 mg/ml): 3%
increase in tropoelastin synthesis compared to basal control (tropoelastin; 0.05 mg/ml): 11%
increase in tropoelastin synthesis compared to basal control (tropoelastin; 0.10 mg/ml): 20%
increase in tropoelastin synthesis compared to basal control (tropoelastin; 0.50 mg/ml): 31%
